Structures can show the parent of a compound that is named as a salt.
Experiments:
[1] = Fesoterodine fumarate obtained as disclosed in EP 2 251 318 (prior art); cited from earlier work
[2] = stability studies of Fesoterodine fumarate samples under various temperature and humidity conditions, HPLC analysis; format: physicochemical
Source text: Various samples of Fesoterodine fumarate salt of formula (I) have been taken from a batch of product, obtained using the process of the present invention, having a HPLC purity exceeding 99.8% and a content of the impurities of formulas (II), (III), (IV), (V), (VI) or (VII) of less than 0.10%, calculated as HPLC Area %, and completely free of impurities of formula (VIII) and (IX). Some of the samples taken were also micronized to reduce the particle size, both the samples directly taken from the sample batch and the micronized samples have been subjected to stability studies under various temperature and humidity conditions for up to 90 days.
An example of the conditions used in the stability studies were 40° C. with 75% relative humidity and 25° C. with 60% relative humidity.

- formation of impurities of formula (VIII) and/or (IX) ([2]; HPLC analysis, any of the conditions used, up to 90 days, e.g. 40° C./75% RH and 25° C./60% RH): has not shown the formation
- increase in the content of impurities of formula (VI), (VII), (VIII) or (IX) over time ([2]; after 90 days under various temperature and humidity conditions): did not show any increase
- stability of micronized sample on storage ([2]; micronized, maintained for 3 months at 4° C.): completely unaltered
- impurities content of formula (VI) and/or (VII) ([2]; stability studies up to 90 days, e.g. 40° C. with 75% relative humidity and 25° C. with 60% relative humidity, batch samples and micronized samples): less than 0.10 % (HPLC Area %)
Compound: CC(C)C(=O)Oc1ccc(CO)cc1[C@H](CCN(C(C)C)C(C)C)c1ccccc1 [Fesoterodine fumarate, (R)-2-(3-diisopropylamino-1-phenylpropyl)-4-(hydroxymethyl)phenol isobutyrate]
- impurity of formula (VI) generated over time [1]: > 1%
